# Target: T1, PelA (Pseudomonas aeruginosa, UniProt Q9HZE4)
# T1 construct: PelAΔ46Chis6, residues 47 to 948, C-terminal His6
# Experiment: fluorogenic AMMU esterase assay with purified PelA, Michaelis-Menten global noncompetitive fit (IC50 […]); reversible by gel filtration
# Type: biochemical
# T1 sequence (Q9HZE4 entry or part of it): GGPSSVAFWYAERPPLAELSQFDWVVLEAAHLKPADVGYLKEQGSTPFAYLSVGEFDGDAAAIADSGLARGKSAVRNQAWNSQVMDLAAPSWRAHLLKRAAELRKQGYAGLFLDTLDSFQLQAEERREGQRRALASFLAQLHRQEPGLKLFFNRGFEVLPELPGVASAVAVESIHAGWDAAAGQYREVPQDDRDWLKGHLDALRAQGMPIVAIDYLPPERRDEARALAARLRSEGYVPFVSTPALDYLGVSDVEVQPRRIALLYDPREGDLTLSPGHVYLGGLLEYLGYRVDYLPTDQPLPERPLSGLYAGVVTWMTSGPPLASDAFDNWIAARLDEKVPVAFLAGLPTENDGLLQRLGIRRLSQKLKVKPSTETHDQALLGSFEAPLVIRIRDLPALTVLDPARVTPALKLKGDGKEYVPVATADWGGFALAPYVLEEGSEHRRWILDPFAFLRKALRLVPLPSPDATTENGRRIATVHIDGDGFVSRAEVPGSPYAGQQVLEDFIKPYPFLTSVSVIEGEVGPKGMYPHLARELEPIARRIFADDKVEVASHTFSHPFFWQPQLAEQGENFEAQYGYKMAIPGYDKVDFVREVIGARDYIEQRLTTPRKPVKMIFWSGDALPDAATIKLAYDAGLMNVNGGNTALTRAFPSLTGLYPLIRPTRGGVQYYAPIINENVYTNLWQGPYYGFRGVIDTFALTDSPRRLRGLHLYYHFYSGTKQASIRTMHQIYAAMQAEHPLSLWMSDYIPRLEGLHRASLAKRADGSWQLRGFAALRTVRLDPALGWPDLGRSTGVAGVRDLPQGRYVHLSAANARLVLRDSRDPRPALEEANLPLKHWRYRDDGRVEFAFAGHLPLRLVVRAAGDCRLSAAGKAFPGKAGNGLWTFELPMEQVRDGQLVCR
structure (smiles),measurement,value
"CSC(=S)N/N=C/c1ccccn1 [SK-017154-O, methyl 2-(2-pyridinylmethylene) hydrazinecarbodithioate]",Ki,1.13 ± 0.03 µM

# — article PMC10269871, “Small Molecule Inhibition of an Exopolysaccharide Modification Enzyme is a Viable Strategy To Block Pseudomonas aeruginosa Pel Biofilm Formation” (Microbiology Spectrum, 2023)
